Measured values reported in PMC3914206.

Tests used:
Type in all cases: binding
Parameters in all cases: KINOMEscan: ABL1(F317L)-phosphorylated / KINOMEscan: ABL1(H396P)-nonphosphorylated / KINOMEscan: ABL1(H396P)-phosphorylated / KINOMEscan: ABL1(M351T)-phosphorylated / KINOMEscan: ABL1(T315I)-phosphorylated / KINOMEscan: ABL1-nonphosphorylated / KINOMEscan: ABL1-phosphorylated / KINOMEscan: ACVR2A / KINOMEscan: ACVR2B / KINOMEscan: ADCK3 / KINOMEscan: ADCK4 / KINOMEscan: AKT1 / KINOMEscan: AKT3 / KINOMEscan: ALK / KINOMEscan: ARK5 / KINOMEscan: AURKA / KINOMEscan: AURKC / KINOMEscan: BIKE / KINOMEscan: BMPR1A / KINOMEscan: BMPR1B / KINOMEscan: BMX / KINOMEscan: BRK / KINOMEscan: BRSK1 / KINOMEscan: BRSK2 / KINOMEscan: CAMK1 / KINOMEscan: CAMK1D / KINOMEscan: CAMK1G / KINOMEscan: CAMK2A / KINOMEscan: CAMK2B / KINOMEscan: AAK1 / KINOMEscan: CAMK2D / KINOMEscan: CAMK2G / KINOMEscan: ABL1(F317I)-nonphosphorylated / KINOMEscan: ABL1(F317I)-phosphorylated / KINOMEscan: ABL1(F317L)-nonphosphorylated: unit: % Ctrl
panel of 442 kinases [1] = biological target: T1, panel of 442 kinases (Homo sapiens, UniProt Q9NSY1); details: Compound Concentration 10 µM
T1 construct: purchased KINOMEscan
Text: (§1) We assessed the selectivity of members of this scaffold using the KINOMEscan methodology across a near comprehensive panel of 442 kinases [[18,27]].

panel of 442 kinases [2] = biological target: T2, panel of 442 kinases (Homo sapiens, UniProt Q9UKI8); details: kinase TLK1; compound concentration 10 µM
T2 construct: purchased KINOMEscan
T2 sequence (Q9UKI8 1-766): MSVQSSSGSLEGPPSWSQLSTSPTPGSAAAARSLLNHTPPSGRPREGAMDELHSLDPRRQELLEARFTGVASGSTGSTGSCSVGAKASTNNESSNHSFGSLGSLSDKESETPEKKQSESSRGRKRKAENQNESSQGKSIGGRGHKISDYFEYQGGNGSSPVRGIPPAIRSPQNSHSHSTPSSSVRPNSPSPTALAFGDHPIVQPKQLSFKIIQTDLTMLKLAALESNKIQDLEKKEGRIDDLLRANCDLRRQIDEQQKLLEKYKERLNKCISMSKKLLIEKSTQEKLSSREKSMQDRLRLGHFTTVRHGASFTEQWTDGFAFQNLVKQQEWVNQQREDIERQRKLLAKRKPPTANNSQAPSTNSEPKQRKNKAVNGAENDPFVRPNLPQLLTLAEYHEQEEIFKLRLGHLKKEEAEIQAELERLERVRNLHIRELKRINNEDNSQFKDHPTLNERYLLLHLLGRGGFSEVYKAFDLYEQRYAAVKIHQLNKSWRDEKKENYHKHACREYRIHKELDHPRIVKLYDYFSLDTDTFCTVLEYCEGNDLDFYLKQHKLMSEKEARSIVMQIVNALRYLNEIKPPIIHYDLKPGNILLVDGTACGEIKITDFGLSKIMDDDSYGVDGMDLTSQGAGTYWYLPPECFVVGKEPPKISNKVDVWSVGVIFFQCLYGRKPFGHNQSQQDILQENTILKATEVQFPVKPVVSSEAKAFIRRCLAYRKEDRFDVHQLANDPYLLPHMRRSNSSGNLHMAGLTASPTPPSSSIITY
Text: as §1

panel of 442 kinases [3] = biological target: T3, panel of 442 kinases (Homo sapiens, UniProt P54764); details: Compound Concentration 10 µM
T3 construct: purchased KINOMEscan
Text: as §1

T1 sequence (Q9NSY1 whole entry): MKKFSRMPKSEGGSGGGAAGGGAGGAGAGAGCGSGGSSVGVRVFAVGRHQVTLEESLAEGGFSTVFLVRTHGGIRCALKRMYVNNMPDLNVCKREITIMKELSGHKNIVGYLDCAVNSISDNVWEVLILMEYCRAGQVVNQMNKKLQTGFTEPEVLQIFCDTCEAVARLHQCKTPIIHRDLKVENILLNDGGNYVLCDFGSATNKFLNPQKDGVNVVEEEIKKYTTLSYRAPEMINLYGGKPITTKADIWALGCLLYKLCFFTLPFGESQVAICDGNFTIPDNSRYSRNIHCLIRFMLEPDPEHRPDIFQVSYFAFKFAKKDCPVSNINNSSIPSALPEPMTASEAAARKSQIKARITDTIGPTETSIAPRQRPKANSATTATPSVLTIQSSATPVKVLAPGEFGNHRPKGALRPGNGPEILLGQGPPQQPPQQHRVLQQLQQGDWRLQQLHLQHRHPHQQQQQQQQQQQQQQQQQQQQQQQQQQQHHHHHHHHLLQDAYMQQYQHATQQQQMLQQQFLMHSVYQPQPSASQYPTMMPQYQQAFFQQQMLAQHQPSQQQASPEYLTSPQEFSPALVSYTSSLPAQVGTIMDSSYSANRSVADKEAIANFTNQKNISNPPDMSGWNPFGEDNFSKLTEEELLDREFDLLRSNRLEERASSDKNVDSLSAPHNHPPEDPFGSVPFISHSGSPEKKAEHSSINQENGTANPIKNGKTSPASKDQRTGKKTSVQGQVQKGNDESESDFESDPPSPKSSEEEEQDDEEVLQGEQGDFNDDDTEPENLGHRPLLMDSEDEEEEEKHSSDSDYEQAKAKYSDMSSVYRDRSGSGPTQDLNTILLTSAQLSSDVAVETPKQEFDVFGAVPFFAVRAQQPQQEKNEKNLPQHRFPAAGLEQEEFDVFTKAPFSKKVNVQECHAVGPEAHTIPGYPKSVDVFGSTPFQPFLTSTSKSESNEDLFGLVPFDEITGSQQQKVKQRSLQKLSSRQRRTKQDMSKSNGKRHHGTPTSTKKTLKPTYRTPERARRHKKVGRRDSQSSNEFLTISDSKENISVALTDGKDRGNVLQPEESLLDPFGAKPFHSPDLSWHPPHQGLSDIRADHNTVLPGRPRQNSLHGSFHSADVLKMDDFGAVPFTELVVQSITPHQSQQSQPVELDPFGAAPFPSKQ
T3 sequence (P54764 20-986): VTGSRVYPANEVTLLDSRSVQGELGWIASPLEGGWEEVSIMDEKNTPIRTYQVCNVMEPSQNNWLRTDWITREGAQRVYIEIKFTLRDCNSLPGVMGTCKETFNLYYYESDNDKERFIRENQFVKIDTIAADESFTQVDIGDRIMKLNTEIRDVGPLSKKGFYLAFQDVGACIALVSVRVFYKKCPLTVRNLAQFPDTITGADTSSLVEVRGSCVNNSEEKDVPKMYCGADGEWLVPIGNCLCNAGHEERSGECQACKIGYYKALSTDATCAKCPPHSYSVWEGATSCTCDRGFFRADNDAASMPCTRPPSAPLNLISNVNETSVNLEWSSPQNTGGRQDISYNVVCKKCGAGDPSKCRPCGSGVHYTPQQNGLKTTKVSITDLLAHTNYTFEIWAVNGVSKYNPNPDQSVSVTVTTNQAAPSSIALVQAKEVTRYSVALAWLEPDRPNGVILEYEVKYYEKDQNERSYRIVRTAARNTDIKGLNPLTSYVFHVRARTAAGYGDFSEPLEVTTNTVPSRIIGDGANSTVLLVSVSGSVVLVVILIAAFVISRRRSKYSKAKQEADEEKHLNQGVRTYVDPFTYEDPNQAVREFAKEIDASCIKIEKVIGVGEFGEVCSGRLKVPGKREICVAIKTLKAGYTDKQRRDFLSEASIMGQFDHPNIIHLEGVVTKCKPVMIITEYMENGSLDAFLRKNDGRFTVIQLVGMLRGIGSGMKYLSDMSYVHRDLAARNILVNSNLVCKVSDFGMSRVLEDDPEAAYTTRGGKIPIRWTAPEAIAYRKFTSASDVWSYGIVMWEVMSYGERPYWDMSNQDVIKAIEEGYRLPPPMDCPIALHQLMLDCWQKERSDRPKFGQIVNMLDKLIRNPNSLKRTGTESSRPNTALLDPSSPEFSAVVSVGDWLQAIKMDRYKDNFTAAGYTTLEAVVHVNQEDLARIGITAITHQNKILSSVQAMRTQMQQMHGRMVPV

Structure (SMILES) | KINOMEscan: BIKE (panel of 442 kinases [1]) | % Ctrl, TLK1 (panel of 442 kinases [2]) | KINOMEscan: EPHA4 (panel of 442 kinases [3])
CCOc1cc(C(=O)N2CCC(N3CCN(C)CC3)CC2)ccc1Nc1ncc2c(n1)N(C1CCCC1)c1ccccc1C(=O)N2C [Compound 26] | 100 | 90 % Ctrl | 100
COc1cc(C(=O)N2CCC(N3CCN(C)CC3)CC2)ccc1Nc1ncc2c(n1)N(C1CCCC1)c1ccccc1C(=O)N2C [Compound 25, 11-cyclopentyl-2-((2-methoxy-4-(4-(4-methylpiperazin-1-yl)piperidine-1-carbonyl)phenyl)amino)-5-methyl-5H-benzo[e]pyrimido[5,4-b][1,4]diazepin-6(11H)-one] | 93 | 74 % Ctrl | 100
COc1cc(C(=O)N2CCC(N3CCN(C)CC3)CC2)ccc1Nc1ncc2c(n1)N1CCc3cccc(c31)C(=O)N2C [Compound 24] | 73 |  | 97
COc1cc(C(=O)N2CCC(N3CCN(C)CC3)CC2)ccc1Nc1ncc2c(n1)N(C)c1ccccc1C(=O)N2C [15 (LRRK2-IN-1)] | 100 | 100 % Ctrl | 89
